Measurements: patent US20180044343A1, “BICYCLIC IMIDAZOLO DERIVATIVE” (Sumitomo Dainippon Pharma Co., Ltd., priority 2015, published 2018)

Experiments:
Assay type in all cases: biochemical
[1] = target: PDE1B (Homo sapiens, UniProt Q01064); assay: In vitro HTRF PDE1 inhibition assay (PDE1B); settings: in vitro PDE1B HTRF Assay; read-out: IC50
[2] = target: PDE1A3 (Homo sapiens, UniProt P54750); assay: In vitro HTRF PDE1 inhibition assay (PDE1A3); settings: PDE1A3, 100 nM cyclic GMP
Excerpt: (§1) An exemplary procedure for the in vitro Homogenous Time Resolved Fluorescence assay, which can be used to determine the inhibitory action of compounds of the present invention toward PDE1 or its isoforms, follows.
(§2) The HTRF PDE1 assay utilized the HTRF (Homogenous Time Resolved Fluorescence) technology, which is based on the competition between unlabeled cyclic nucleotide and cyclic nucleotide labeled with XL665 for the binding to cyclic nucleotide-specific antibody labeled with cryptate. The HTRF signal is thus inversely proportional to the concentration of cyclic nucleotide being measured. Since phosphodiesterases break down cyclic nucleotides, the HTRF signal was used to determine PDE activity.
(§3) The Cisbio cGMP HTRF assay kit (Cat no: 62GM2PEC) was utilized. Cyclic GMP was diluted to 200 nM in HTRF assay buffer (1 mM CaCl2, 10 mM MgCl2, 10 mM Tris-HCl, 0.1% BSA, pH 7.4). 10 μl of compound or DMSO was diluted in 200 nM cyclic GMP solution and added to wells of a 96 well white plate to give 100 nM cyclic GMP in 1% DMSO final concentration. PDE (1A3, 1B or 1C) was diluted to 2× working concentration in HTRF assay buffer with 2 μg/ml Calmodulin, and 10 μl was added to initiate the reaction. The plate was then incubated for 45 minutes at 27° C. d2-Labelled cyclic GMP and anti-cGMP cryptate were diluted in 50 mM phosphate buffer, 0.8 M KF, 1% Triton X100, 0.2% BSA, pH 7.0. Following incubation 10 μl d2-cGMP, then 10 μl anti cGMP cryptate were added to each well and the plate was incubated for 60 minutes at room temperature. The plate was then read on Perkin Elmer EnVision at 2 different FRET readings ex/em 340 nm/665 nm and 340 nm/615 nm.
(§4) Compounds having an IC50 of <1 μM are denoted as +++. Compounds having an IC50 of 1-10 μM are denoted as ++. Compounds having an IC50 of 10-100 μM are denoted as +.

[3] = target: PDE1C (Homo sapiens, UniProt Q14123); assay: In vitro HTRF PDE1 inhibition assay (PDE1C); settings: 100 nM cyclic GMP
Excerpt: as §1, §2, §3, §4

Sequence of PDE1B (Q01064 whole entry): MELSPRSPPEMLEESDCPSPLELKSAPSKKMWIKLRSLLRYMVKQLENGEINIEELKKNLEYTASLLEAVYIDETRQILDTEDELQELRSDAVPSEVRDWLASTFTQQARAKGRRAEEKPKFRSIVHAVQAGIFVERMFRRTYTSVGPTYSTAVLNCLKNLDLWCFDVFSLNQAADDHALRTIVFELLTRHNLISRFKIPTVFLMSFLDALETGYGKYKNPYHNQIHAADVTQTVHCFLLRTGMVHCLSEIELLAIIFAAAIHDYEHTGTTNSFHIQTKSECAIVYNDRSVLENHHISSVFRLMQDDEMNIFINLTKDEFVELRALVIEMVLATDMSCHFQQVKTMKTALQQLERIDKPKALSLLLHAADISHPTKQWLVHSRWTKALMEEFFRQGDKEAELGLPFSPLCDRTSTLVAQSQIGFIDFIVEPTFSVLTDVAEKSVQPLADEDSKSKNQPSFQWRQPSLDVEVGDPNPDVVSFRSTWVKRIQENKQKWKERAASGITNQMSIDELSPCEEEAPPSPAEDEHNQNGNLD

Row | Compound | IC50 [1] [nM] | IC50 [2] [µM] | IC50 [3] [µM]
1 | CCn1c(O[C@H]2CC[C@H](OC)CC2)nn2c(C3CCOCC3)ncc2c1=O [Example 310] | < 1000 | < 1 | < 1
2 | CCO[C@H]1CC[C@@H](COc2nn3c(C4CCOCC4)ncc3c(=O)n2C)CC1 [Example 247] | < 1000 | < 1 | < 1
3 | CCn1c(OC[C@H]2CC[C@H](C(F)(F)F)CC2)nn2c(C3CCOCC3)ncc2c1=O [Example 251] | < 1000 | < 1 | < 1
4 | CO[C@H]1CC[C@@H](Oc2nn3c(C4CCOCC4)ncc3c(=O)n2C)CC1 [Example 312] | < 1000 | < 1 | < 1
5 | COC[C@H]1CC[C@@H](Oc2nn3c(C4CCOCC4)ncc3c(=O)n2C)CC1 [Example 318] | < 1000 | < 1 | < 1
6 | CCOC[C@H]1CC[C@H](Oc2nn3c(C4CCOCC4)ncc3c(=O)n2CC)CC1 [Example 258] | < 1000 | < 1 | < 1
7 | CCO[C@H]1CC[C@H](COc2nn3c(C4CCOCC4)ncc3c(=O)n2CC)CC1 [Example 249] | < 1000 | < 1 | < 1
8 | CCn1c(OC2CCC(F)(F)CC2)nn2c(C3CCOCC3)ncc2c1=O [Example 304, 2-[(4,4-difluorocyclohexyl)oxy]-3-ethyl-7-(tetrahydro-2H-pyran-4-yl)imidazo[5,1-f][1,2,4]triazin-4(3H)-one] | < 1000 | < 1 | < 1
9 | CCn1c(O[C@H]2CC[C@@H](OC)CC2)nn2c(C3CCOCC3)ncc2c1=O [Example 313] | < 1000 | < 1 | < 1
10 | CCn1c(OCCC2(C(F)(F)F)CC2)nn2c(C3CCOCC3)ncc2c1=O [Example 283] | < 1000 | < 1 | < 1
11 | CCn1c(O[C@H]2CC[C@H](C(F)(F)F)CC2)nn2c(C3CCOCC3)ncc2c1=O [Example 306] | < 1000 | < 1 | < 1
12 | CO[C@H]1CC[C@H](Oc2nn3c(C4CCOCC4)ncc3c(=O)n2C)CC1 [Example 309] | < 1000 | < 1 | 1 to 10
13 | Cn1c(OC2CCC(C)(C)CC2)nn2c(C3CCOCC3)ncc2c1=O [Example 302] | < 1000 | < 1 | < 1
14 | Cn1c(OC2CCCCC2)nn2c(C3CCOCC3)ncc2c1=O [Example 255, 2-(cyclohexyloxy)-3-methyl-7-(tetrahydro-2H-pyran-4-yl)imidazo[5,1-f][1,2,4]triazin-4(3H)-one] | < 1000 | < 1 | < 1
15 | COc1nn2c(C3CCOCC3)ncc2c(=O)n1C[C@H]1CC[C@H](OC)CC1 [Example 253] | < 1000 | < 1 | < 1
16 | Cn1c(OCc2ccc(-c3ccc(Cl)cn3)cc2)nn2c(C3CCOCC3)ncc2c1=O [Example 50] | < 1000 |  | 
17 | Cn1c(N2CC[C@@H](Oc3ccc(F)cn3)C2)nn2c(C3CCOCC3)ncc2c1=O [Example 189] | < 1000 |  | 
18 | CCn1c(OCCc2ccccn2)nn2c(C3CCOCC3)ncc2c1=O [Example 64] | < 1000 |  | 
19 | COc1nn2c(C3CCOCC3)ncc2c(=O)n1Cc1ccc(C#N)cc1 [Example 280] | 10000 to 100000 |  | 
20 | CC(C)c1ncc2c(=O)n(C)c(NCc3ccc(Cl)cc3)nn12 [Example 141] | < 1000 |  | 
21 | CC(C)c1ncc2c(=O)n(C)c(NC3CCCc4ccccc43)nn12 (stereo not drawn) [Example 138, 3-Methyl-7-(propan-2-yl)-2-(1,2,3,4-tetrahydronaphthalen-1-ylamino)imidazo[5,1-f][1,2,4]triazin-4(3H)-one] | < 1000 |  | 
22 | CC(C)c1ncc2c(=O)[nH]c(N3CCCC3c3ccc(Cl)cc3)nn12 (stereo not drawn) [Example 134] | < 1000 |  | 
23 | CCn1c(N2CCC[C@@H]2c2ccc(Cl)cc2)nn2c(C(C)C)ncc2c1=O [Example 178] | < 1000 |  | 
24 | COc1nn2c(C(C)OC)ncc2c(=O)n1CC1CCC(F)(F)CC1 (stereo not drawn) [Example 114] | < 1000 |  | 
25 | Cn1c(OCC2(C(F)(F)F)CCCC2)nn2c(C3CCOCC3)ncc2c1=O [Example 295] | < 1000 |  | 
26 | COc1nn2c(C(C)C)ncc2c(=O)n1CC1CCC(F)(F)CC1 [Example 263] | < 1000 |  | 

Row | Compound | IC50 [1] [nM] | IC50 [2] [µM] | IC50 [3] [µM]
27 | COCCn1c(OCc2ccc(F)cc2)nn2c(C3CCOCC3)ncc2c1=O [Example 279] | < 1000 |  | 
28 | COc1nn2c(C3CCOCC3)ncc2c(=O)n1Cc1ccccn1 [Example 268] | 1000 to 10000 |  | 
29 | CN(Cc1nn2c(C3CCCC3)ncc2c(=O)n1C)c1ccc(C(F)(F)F)cc1 [Example 235] | < 1000 |  | 
30 | Cn1c(OC[C@H]2CC[C@H](C(F)(F)F)CC2)nn2c(C3=CCCCC3)ncc2c1=O [Example 329, 7-(Cyclohex-1-en-1-yl)-3-methyl-2-{[trans-4-(trifluoromethyl)cyclohexyl]-methoxy}imidazo[5,1-f][1,2,4]triazin-4(3H)-one] | 1000 to 10000 |  | 
31 | COc1nn2c(C3CCOCC3)ncc2c(=O)n1CC1CCC1 [Example 273] | < 1000 |  | 
32 | CC(C)c1ncc2c(=O)n(C)c(OCc3ccccn3)nn12 [Example 12] | < 1000 |  | 
33 | CC(C)c1ncc2c(=O)n(C)c(NCc3ccc(C#N)cc3)nn12 [Example 142] | < 1000 |  | 
34 | CCn1c(NCc2ncccc2F)nn2c(C(C)C)ncc2c1=O [Example 174] | < 1000 |  | 
35 | Cn1c(OCc2ccc(-c3ccc(F)cc3)cc2)nn2c(C3CCOCC3)ncc2c1=O [Example 51] | 1000 to 10000 |  | 
36 | O=c1c2cnc(C3CCOCC3)n2nc(OCc2ccc(-c3ccccn3)cc2)n1CC1CC1 [Example 97] | < 1000 |  | 
37 | CCn1c(OCC2CCC(F)(F)CC2)nn2c(C3CCOCC3)nc(Cl)c2c1=O [Example 119, 5-chloro-2-[(4,4-difluorocyclohexyl)methoxy]-3-ethyl-7-(tetrahydro-2H-pyran-4-yl)-imidazo[5,1-f][1,2,4]triazin-4(3H)-one] | < 1000 |  | 
38 | CC(C)c1ncc2c(=O)n(C)c(N[C@H]3CCCc4ccccc43)nn12 [Example 145] | < 1000 |  | 
39 | Cn1c(NCc2ccccn2)nn2c(C3CCOCC3)ncc2c1=O [Example 181] | < 1000 |  | 
40 | CC(C)c1ncc2c(=O)n(C)c(N3CCC[C@@H]3c3ccc(Cl)cc3)nn12 [Example 164] | < 1000 |  | 
41 | O=c1c2cnc(C3CCOCC3)n2nc(OCCc2ccc(Cl)cc2)n1CC1CC1 [Example 98] | < 1000 |  | 
42 | CCn1c(OCc2ccc(-c3ccc(Cl)cc3)cc2)nn2c(C3CCOCC3)ncc2c1=O [Example 79] | < 1000 |  | 
43 | CN(C)CC(=O)N1CCCN(c2nn3c(C4CCOCC4)ncc3c(=O)n2C)CC1 [Example 222, 2-{4-[(Dimethylamino)acetyl]-1,4-diazepan-1-yl}-3-methyl-7-(tetrahydro-2H-pyran-4-yl)imidazo[5,1-f][1,2,4]triazin-4(3H)-one] | 10000 to 100000 |  | 
44 | CCn1c(OCC2CCC(F)(F)CC2)nn2c(C3CCOCC3)nc(C)c2c1=O [Example 121] | < 1000 |  | 
45 | CC(C)c1ncc2c(=O)n(C)c(NCc3ncccc3F)nn12 [Example 160] | < 1000 |  | 
46 | Cn1c(O[C@H]2CC[C@H](C)CC2)nn2c(C3CCOCC3)ncc2c1=O [Example 254, 3-Methyl-2-[(trans-4-methylcyclohexyl)oxy]-7-(tetrahydro-2H-pyran-4-yl)imidazo[5,1-f][1,2,4]triazin-4(3H)-one] | < 1000 |  | 
47 | Cn1c(OCCCc2ncccc2F)nn2c(C3CCOCC3)ncc2c1=O [Example 43] | < 1000 |  | 
48 | CCO[C@H]1CC[C@H](Oc2nn3c(C4CCOCC4)ncc3c(=O)n2CC)CC1 [Example 315] | < 1000 | < 1 | < 1
49 | CO[C@H]1CC[C@H](Oc2nn3c(C4CCOCC4)ncc3c(=O)n2C(C)C)CC1 [Example 311] | < 1000 |  | 
50 | O=c1[nH]c(N2CCCC2c2cccc(Cl)c2)nn2c(C3CCOCC3)ncc12 (stereo not drawn) [Example 128] | < 1000 |  | 
51 | CCn1c(OC[C@H]2CC[C@H](COC)CC2)nn2c(C3CCOCC3)ncc2c1=O [Example 287] | < 1000 |  | 
52 | CCn1c(OCCCc2cccnc2)nn2c(C3CCOCC3)ncc2c1=O [Example 68] | < 1000 |  | 
